Target: T1, DHS (deoxyhypusine synthase) from Ixodes ricinus (Ixodes ricinus, UniProt A0A0K8RJK0)
T1 construct: cDNA from salivary gland RNA; pET-28a(+) N-terminal His tag/thrombin/T7 tag, removal not mentioned; E. coli BL21(DE3), Ni-NTA native purification
T1 sequence (A0A0K8RJK0 1-365): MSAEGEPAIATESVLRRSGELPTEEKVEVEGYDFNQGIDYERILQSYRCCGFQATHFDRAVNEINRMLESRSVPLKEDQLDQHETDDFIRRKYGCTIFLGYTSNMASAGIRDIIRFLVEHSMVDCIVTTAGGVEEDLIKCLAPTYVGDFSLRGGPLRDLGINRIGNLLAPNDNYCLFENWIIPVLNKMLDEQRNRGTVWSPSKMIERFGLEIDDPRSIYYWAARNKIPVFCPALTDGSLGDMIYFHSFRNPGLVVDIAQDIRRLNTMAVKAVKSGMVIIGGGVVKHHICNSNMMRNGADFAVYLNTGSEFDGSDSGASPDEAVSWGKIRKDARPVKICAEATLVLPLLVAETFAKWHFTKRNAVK
Test: DHS activity assay, GC/MS detection of deoxyhypusine
Assay type: biochemical
Settings: 2.1 mM spermidine, co-substrate human eIF5A precursor 40 μg, 3 mM NAD, glycine NaOH buffer, 37 °C, 1 h; specific activity only

For `NCCCCNCCCN` [spermidine], the “DHS activity assay, GC/MS detection of deoxyhypusine” value was “No DHS activity was detected in control experiments without either the precursor protein”.

From article PMC12420206, “The hypusine pathway in Ixodes ricinus: molecular cloning and validation of deoxyhypusine synthase as a novel target for drug discovery to treat and prevent vector borne diseases” (Frontiers in Cellular and Infection Microbiology, 2025)
